Patent US7691575B2, “Immunomodulatory compositions” (Academia Sinica, priority 2005, dated 2010)

System: human IFN γ promoter
Assay: IFN γ promoter reporter assay (dual luciferase, pIFN γ-Luc/pRL-TK) in transfected Jurkat cells
Format: cell-based
Experimental: Jurkat cells were transfected with pIFN γ-Luc and pRL-TK, or pIL-2 and pRL-TK, plasmid DNA constructs using electroporation and then treated with different plant crude extracts, which were prepared using boiling water. The fold induction was expressed in arbitrary units as the ratio of firefly luciferase activity (encoded by pIFN γ-Luc) to that of Renilla luciferase (pRL-TK).
A 615 base pair (bp) DNA fragment containing the human IFN γ promoter region from bp −487 to +128 (SEQ ID NO:1) was amplifed by polymerase chain reaction (PCR) using the specific primers (5′-[…]-3′ (SEQ ID NO:3) and 5′-[…]-3′ (SEQ ID NO:4))and human genomic DNA, isolated from blood, as a template. […]
Firefly and Renilla luciferase activities were measured in cell lysates made from transfected T-cells that were exposed to a plant extract or phytocompound, or underwent negative control treatment. […] The protein concentration in each lysate was determined using a Bradford reagent protein assay (Bio-Rad, Calif.).
Samples of ten micrograms of cell lysate protein were subjected to a dual luciferase reporter assay according to the manufacturer's instructions (Promega, Wis.). Firefly and Renilla luciferase activities were determined in each sample with a luminometer. […] The IFN γ or IL-2 promoter activity for each sample was calculated as a ratio of firefly luciferase to Renilla luciferase-dependent luminescence.

Row | Compound | IFN γ promoter activity (concentration not given) | IFN γ promoter activity (100 μg/mL, relative to untreated cells, p<0.001)
1 | O=C(/C=C/c1ccc(O)c(O)c1)O[C@@H]1[C@H](O)C[C@@](O)(C(=O)O)C[C@H]1OC(=O)/C=C/c1ccc(O)c(O)c1 [4,5-di-O-caffeoylquinic acid] | did not induce a significant increase | 
2 | COc1ccc(-c2oc3cc(O[C@@H]4O[C@H](CO)[C@@H](O)[C@H](O)[C@H]4O)c(OC)c(O)c3c(=O)c2OC)cc1O [Centaurein, centaurein] |  | highly significant increase
